What all share (format): cell-based
In one experiment the test system is HeLa galactose cells. The experiment in a line: Cell growth and proliferation assay of HeLa galactose cells (crystal violet). The settings on record: Homo sapiens, HeLa, 72 h, 72 hours incubation, crystal violet staining, absorbance at 590 nm. The procedure, abridged:
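HeLa cells adapted stepwise over three weeks to glucose-free galactose medium plus 10 mM galactose, seeded at 2000 cells/well and treated 72 h with compounds (0.001% DMSO) at 37° C. Growth read by crystal violet staining, dye solubilized and absorbance at 590 nm; IC50 from concentration-response curves.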

In experiment [1] the test system is Oxygen consumption (mitochondrial function). Put plainly: Oxygen consumption assay (MitoXpress probe). The following applies: 5 h, MitoXpress probe signal, kinetic analysis at 37° C. for 5 hours, compared to untreated cells. A digest of the protocol:
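Cells seeded at 50′000/well, after 24 h given fresh media with inhibitor at a range of concentrations, then MitoXpress probe under mineral oil. Kinetic TRF read (380 nm excitation, 650 or 665 nm emission) at 37° C. for 5 hours. IC50 = concentration inhibiting 50% of probe signal versus untreated cells.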

For experiment [2], the system named is HeLa glucose versus HeLa galactose cells. The experiment in a line: Cell growth assays (crystal violet) in HeLa galactose and HeLa glucose cells. The following applies: FIG. 1, crystal violet cell growth assay. The method, then: The cervical tumor cell line HeLa (ATCC, CCL-2) was cultivated in DMEM medium (Invitrogen cat. no. 11971, 4.5 g/L high glucose) containing 10% fetal calf serum (Sigma cat. no. F9665) and 1% Penicillin/Streptomycin (Sigma cat. no. P0781) at 37° C. in 5% CO2. HeLa galactose cells (i.e. HeLa cells that grow in high concentrations of galactose) were generated from HeLa glucose cells (i.e. HeLa cells that grow in high concentrations of glucose) by gradually changing the amount of glucose in the media to zero glucose in the presence of galactose as a sugar source (50% galactose/50% glucose media for one week, then 75% galactose/25% glucose media for one week, to 100% galactose media in the third week). Galactose media (Invitrogen cat. no. 11966) was supplemented with 10 mM galactose (Sigma cat. no. G5388).
Cell Growth and Proliferation Assay of HeLa Galactose and Glucose Cells
HeLa galactose cells and HeLa glucose cells were seeded in 96 well plates (TPP, cat. no 92696) at 2000 and 1500 cells/well, respectively, in 100 μL of complete medium. […] Absorbance at 590 nm was measured using a SpectraMax® 250 plate reader (Molecular Devices). Antiproliferative/growth inhibition IC50s were calculated from concentration-response curves using GraphPad Prism software. […]

`Cc1nsc(NC(=O)N2CCC(=Cc3c(F)cc(C(F)(F)F)cc3F)CC2)n1` [Example 41, 4-[[2,6-difluoro-4-(trifluoromethyl)phenyl]methylene]-N-(3-methyl-1,2,4-thiadiazol-5-yl)piperidine-1-carboxamide]: the IC50 in the experiment with HeLa galactose cells turned out to be 0.023 µM; in experiment [1], 0.041 µM. Also, the “differential sensitivity in HeLa glucose versus HeLa galactose cell growth” value in experiment [2] is reported as “exhibit differential sensitivity”.

Regarding `Cc1cc(NC(=O)N2CCC(C(=O)c3c(F)cc(C(F)(F)F)cc3F)CC2)ccn1` [Example 173], the IC50 in the experiment on HeLa galactose cells came out at 0.054 µM; in experiment [1], 0.136 µM.

`COCc1cc(NC(=O)N2CCC(=Cc3ccc(Cl)cc3F)CC2)ccn1` [Example 176]: the IC50 in the experiment with HeLa galactose cells was found to be 0.054 µM; in experiment [1] it was 0.133 µM.

For the compound `CCc1cc(NC(=O)N2CCC(=Cc3c(F)cc(C#N)cc3F)CC2)ccn1` [Example 179, 4-[(4-cyano-2,6-difluoro-phenyl)methylene]-N-(2-ethyl-4-pyridyl)piperidine-1-carboxamide], the figures for the IC50 (with HeLa galactose cells; in experiment [1]) were 0.011 µM and 0.041 µM, respectively.

`N#Cc1cc(F)c(C=C2CCN(C(=O)Nc3ccnc(C4CC4)c3)CC2)c(F)c1` [Example 182, 4-[(4-cyano-2,6-difluoro-phenyl)methylene]-N-(2-cyclopropyl-4-pyridyl)piperidine-1-carboxamide]: the IC50 turned out to be 0.013 µM in the experiment on HeLa galactose cells and 0.108 µM in experiment [1].

Turning to `O=C(Nc1ccnc(C2CC2)c1)N1CCC(=Cc2ccc(Cl)cc2F)CC1` [Example 183, 4-[(4-chloro-2-fluoro-phenyl)methylene]-N-(2-cyclopropyl-4-pyridyl)piperidine-1-carboxamide], the IC50 with HeLa galactose cells was 0.021 µM; in experiment [1] it was 0.042 µM.

On to Antimycin A, for which the “differential sensitivity in HeLa glucose versus HeLa galactose cell growth” value in experiment [2] is “differential sensitivity in HeLa glucose versus HeLa galactose cell growth is exhibited”.

A word on the IC50: it is the concentration at which inhibition is half-maximal.

These data come from patent US20190142810A1, “MITOCHONDRIAL INHIBITORS FOR THE TREATMENT OF PROLIFERATION DISORDERS” (Basilea Pharmaceutica International AG, priority 2016, published 2019).
